Test results published in ChEMBL document CHEMBL4257462, “Benzisoxazole: a privileged scaffold for medicinal chemistry” (Medchemcomm, 2017).
Values after ≈ are worked out from the molar mass of the structure shown.

What was measured:
[1] = system: Mycobacterium tuberculosis; assay: Antimycobacterial activity against Mycobacterium tuberculosis H37Rv; type: functional
[2] = target: 5-hydroxytryptamine receptor 2A (Rattus norvegicus, UniProt P14842); assay: Displacement of [3H]ketanserin from 5-HT2A receptor in rat frontal cortex membranes; type: cell membranes, Membrane
D(2) dopamine receptor = D(2) dopamine receptor (Rattus norvegicus, UniProt P61169); assay: Displacement of [3H]methylspiperone from D2 receptor in rat striatal membranes; type: cell membranes, Striatum, Membrane
Geotrichum candidum = assay: Antimicrobial activity against Geotrichum candidum; type: functional
HepG2 = assay: Growth inhibition of human HepG2 cells after 24 hrs by MTT assay relative to control; type: functional
Acetylcholinesterase [3] = target: Acetylcholinesterase (Electrophorus electricus, UniProt O42275); assay: Inhibition of electric eel AChE
Acetylcholinesterase [4] = target: Acetylcholinesterase (Homo sapiens, UniProt P22303); assay: Inhibition of human serum AChE
Acetylcholinesterase [5] = target: T1, Acetylcholinesterase (Rattus norvegicus, UniProt P37136); assay: Inhibition of rat brain AChE
T1 sequence (P37136 whole entry): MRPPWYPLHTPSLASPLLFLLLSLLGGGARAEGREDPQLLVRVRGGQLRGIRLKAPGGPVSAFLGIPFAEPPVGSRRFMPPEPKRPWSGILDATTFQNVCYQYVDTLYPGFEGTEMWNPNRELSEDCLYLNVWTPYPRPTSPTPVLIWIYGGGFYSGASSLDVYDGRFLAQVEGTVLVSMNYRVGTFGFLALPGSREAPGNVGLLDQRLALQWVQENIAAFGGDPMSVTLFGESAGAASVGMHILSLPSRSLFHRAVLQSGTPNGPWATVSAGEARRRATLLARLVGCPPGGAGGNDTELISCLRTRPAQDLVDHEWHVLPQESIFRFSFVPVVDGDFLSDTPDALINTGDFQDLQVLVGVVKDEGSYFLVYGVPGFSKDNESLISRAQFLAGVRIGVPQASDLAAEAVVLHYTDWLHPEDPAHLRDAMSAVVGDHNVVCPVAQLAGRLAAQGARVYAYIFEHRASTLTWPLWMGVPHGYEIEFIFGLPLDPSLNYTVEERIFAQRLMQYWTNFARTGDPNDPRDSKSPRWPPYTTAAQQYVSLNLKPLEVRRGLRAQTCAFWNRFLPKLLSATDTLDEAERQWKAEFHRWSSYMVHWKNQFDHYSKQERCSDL

[6] = Inhibition of urease (unknown origin)

Chain of Acetylcholinesterase (Homo sapiens, UniProt P22303) (P22303 whole entry): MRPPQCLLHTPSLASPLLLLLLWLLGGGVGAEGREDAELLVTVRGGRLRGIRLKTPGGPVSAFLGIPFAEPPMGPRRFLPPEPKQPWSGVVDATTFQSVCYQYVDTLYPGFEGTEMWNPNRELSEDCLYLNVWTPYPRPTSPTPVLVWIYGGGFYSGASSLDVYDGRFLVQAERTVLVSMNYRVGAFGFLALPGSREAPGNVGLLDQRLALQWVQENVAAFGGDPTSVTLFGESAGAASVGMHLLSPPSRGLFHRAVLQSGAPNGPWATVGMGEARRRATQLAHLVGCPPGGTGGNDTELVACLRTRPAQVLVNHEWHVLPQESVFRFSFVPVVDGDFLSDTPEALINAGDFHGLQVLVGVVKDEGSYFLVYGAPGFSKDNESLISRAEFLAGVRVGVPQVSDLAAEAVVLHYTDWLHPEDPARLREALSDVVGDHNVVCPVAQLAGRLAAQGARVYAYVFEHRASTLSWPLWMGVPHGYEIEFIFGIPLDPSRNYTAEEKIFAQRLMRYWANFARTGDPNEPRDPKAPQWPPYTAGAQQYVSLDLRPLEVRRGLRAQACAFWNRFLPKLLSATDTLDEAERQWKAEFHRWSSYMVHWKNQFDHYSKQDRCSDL
Chain of Acetylcholinesterase (Electrophorus electricus, UniProt O42275) (O42275 whole entry): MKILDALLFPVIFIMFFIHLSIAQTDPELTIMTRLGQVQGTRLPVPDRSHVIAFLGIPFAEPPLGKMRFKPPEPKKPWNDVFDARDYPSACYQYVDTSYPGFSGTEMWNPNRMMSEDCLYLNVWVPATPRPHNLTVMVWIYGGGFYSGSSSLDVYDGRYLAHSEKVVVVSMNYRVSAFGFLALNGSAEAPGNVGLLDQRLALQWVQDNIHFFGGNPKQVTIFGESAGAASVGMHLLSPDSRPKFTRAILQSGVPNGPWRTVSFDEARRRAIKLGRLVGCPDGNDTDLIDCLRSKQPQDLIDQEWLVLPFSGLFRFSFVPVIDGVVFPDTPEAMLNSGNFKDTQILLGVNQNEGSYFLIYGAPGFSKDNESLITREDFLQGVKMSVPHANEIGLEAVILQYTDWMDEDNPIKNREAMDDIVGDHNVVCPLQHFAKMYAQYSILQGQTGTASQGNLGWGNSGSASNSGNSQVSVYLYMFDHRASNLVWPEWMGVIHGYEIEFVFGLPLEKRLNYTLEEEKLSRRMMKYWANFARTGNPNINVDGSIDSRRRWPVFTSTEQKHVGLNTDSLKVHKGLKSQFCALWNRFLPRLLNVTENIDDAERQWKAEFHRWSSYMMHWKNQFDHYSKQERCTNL
Chain of D(2) dopamine receptor (P61169 whole entry): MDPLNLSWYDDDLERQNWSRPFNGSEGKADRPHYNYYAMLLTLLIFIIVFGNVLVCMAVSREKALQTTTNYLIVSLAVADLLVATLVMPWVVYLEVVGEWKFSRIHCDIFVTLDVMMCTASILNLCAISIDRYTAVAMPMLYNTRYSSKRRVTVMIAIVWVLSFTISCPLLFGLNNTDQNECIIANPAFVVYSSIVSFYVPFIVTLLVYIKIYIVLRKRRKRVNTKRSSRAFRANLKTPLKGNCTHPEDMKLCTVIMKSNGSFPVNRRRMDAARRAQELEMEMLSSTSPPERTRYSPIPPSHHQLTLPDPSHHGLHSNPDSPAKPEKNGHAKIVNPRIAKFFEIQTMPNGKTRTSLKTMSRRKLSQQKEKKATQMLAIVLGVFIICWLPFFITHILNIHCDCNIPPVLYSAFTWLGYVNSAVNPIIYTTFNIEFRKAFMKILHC
Chain of 5-hydroxytryptamine receptor 2A (P14842 whole entry): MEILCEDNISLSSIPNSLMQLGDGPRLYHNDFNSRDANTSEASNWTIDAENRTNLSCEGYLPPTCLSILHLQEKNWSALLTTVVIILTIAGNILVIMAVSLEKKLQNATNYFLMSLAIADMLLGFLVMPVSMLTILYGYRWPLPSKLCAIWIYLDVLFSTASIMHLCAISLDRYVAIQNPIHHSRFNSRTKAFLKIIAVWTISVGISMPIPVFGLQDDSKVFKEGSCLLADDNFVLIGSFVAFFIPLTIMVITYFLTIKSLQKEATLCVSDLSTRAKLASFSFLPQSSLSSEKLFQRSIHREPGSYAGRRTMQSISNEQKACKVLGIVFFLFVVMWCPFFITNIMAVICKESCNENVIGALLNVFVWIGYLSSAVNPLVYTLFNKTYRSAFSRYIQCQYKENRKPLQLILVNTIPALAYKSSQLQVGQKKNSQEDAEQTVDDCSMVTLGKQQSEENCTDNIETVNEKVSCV

SMILES: O=S(=O)(c1ccccc1)N1CCN(c2noc3ccccc23)CC1
- MIC [1]: 3.25 µg/mL (≈ 9.46 µM)

SMILES: Cc1ccc(S(=O)(=O)N2CCN(c3noc4cccc(Cl)c34)CC2)cc1
- MIC [1]: 6.25 µg/mL (≈ 15.9 µM)

SMILES: O=C1c2ccc(OCCCN3CCC(c4noc5cc(F)ccc45)CC3)cc2OCC1CO (centres undefined)
- IC50 [2]: 6.2 nM
- IC50 (D(2) dopamine receptor): 17 nM

SMILES: O=C(c1ccccc1)N(C(=O)c1ccccc1)c1onc2ccccc12
- MIC (Geotrichum candidum): 584 µM (≈ 200 µg/mL)

SMILES: O=C(c1c(F)cccc1F)N1CCC(c2noc3cc(F)ccc23)CC1
- growth inhibition (GI) (HepG2): 42.06%

SMILES: Fc1ccc2c(C3CCN(CCN4CCCC4)CC3)noc2c1
- IC50 (Acetylcholinesterase [3]): 2510 nM
- IC50 (Acetylcholinesterase [4]): 3290 nM
- IC50 (Acetylcholinesterase [5]): 5300 nM

SMILES: O=C(N1CCCC1)N1CCC(c2noc3cc(F)ccc23)CC1
- growth inhibition (GI) (HepG2): 39.19%

SMILES: CCCN1C(=O)C(C)c2cc(C(=O)CN3CCN(c4noc5cc(Cl)ccc45)CC3)ccc21 (centres undefined)
- MIC [1]: 3.12 µg/mL (≈ 6.68 µM)

SMILES: COc1ccc(NC(=S)NC(Cc2ccccc2)C(=O)N2CCCC2C(=O)N2CCC(c3noc4cc(F)ccc34)CC2)cc1 (centres undefined)
- IC50 [6]: 4900 nM

SMILES: O=C(c1ccccc1)c1onc2ccccc12
- MIC (Geotrichum candidum): 44.8 µM (≈ 10 µg/mL)

SMILES: Fc1ccc2c(C3CCN(CCN4CCCCC4)CC3)noc2c1
- IC50 (Acetylcholinesterase [3]): 1500 nM
- IC50 (Acetylcholinesterase [4]): 2220 nM
- IC50 (Acetylcholinesterase [5]): 1290 nM

SMILES: CCCN1C(=O)Cc2cc(C(=O)CN3CCN(c4noc5ccccc45)CC3)ccc21
- MIC [1]: 3.12 µg/mL (≈ 7.46 µM)

SMILES: O=C(Nc1ccccc1)c1onc2ccccc12
- MIC (Geotrichum candidum): 840 µM (≈ 200 µg/mL)

SMILES: O=C(N1CCOCC1)N1CCC(c2noc3cc(F)ccc23)CC1
- growth inhibition (GI) (HepG2): 37.75%
